Reference: patent publication US6083922A (priority 1997, dated 2000)
In brackets after ≈: the same amount, converted by molar mass. Like-named read-outs stand apart in the source and are kept apart here.

Legend:
[1] = system: Multidrug-Resistant Strains of M. tuberculosis; test: microbe, parasite or virus in culture; type: cell-based, Mycobacterium tuberculosis; conditions: for MIC: Mycobacterium tuberculosis
[2] = system: drug-sensitive and multidrug-resistant strains of M. tuberculosis; test: Survey of tobramycin MICs; type: cell-based; conditions: Mycobacterium tuberculosis

Q: `NC[C@H]1O[C@H](O[C@H]2[C@H](O)[C@@H](O[C@H]3O[C@H](CO)[C@@H](O)[C@H](N)[C@H]3O)[C@H](N)C[C@@H]2N)[C@H](N)C[C@@H]1O` [tobramycin] was tested. Which “sensitivity of multidrug-resistant strains to tobramycin” value [1] did it give?
A: sensitive and nonresistant

Q: And the MIC ([1]; read-out: MIC Tobramycin, strain TN565 (resistant to INH, RIF, SM, KAN))?
A: > 128 µg/mL

Q: What about the MIC ([1]; read-out: MIC Tobramycin, strain TN576 (resistant to INH, RIF, SM, EMB, KAN)) of the same molecule?
A: > 128 µg/mL

Q: What about the MIC ([1]; read-out: MIC Tobramycin, strain TN587 (resistant to INH, RIF, SM, EMB, KAN)) of the same molecule?
A: > 128 µg/mL

Q: And the MIC ([1]; read-out: MIC Tobramycin, strain TN702 (resistant to INH, SM))?
A: 4 µg/mL (≈ 8.56 µM)

Q: What about the MIC ([1]; read-out: MIC Tobramycin, strain TN715 (resistant to INH, RIF, SM)) of the same molecule?
A: 4 µg/mL (≈ 8.56 µM)

Q: And the MIC ([1]; read-out: MIC Tobramycin, strain TN768 (resistant to INH, RIF, SM, EMB))?
A: 8 µg/mL (≈ 17.1 µM)

Q: What about the MIC ([1]; read-out: MIC Tobramycin, strain TN1195 (resistant to INH, SM)) of the same molecule?
A: 4 µg/mL (≈ 8.56 µM)

Q: What about the MIC ([1]; read-out: MIC Tobramycin, strain TN1314 (resistant to INH, RIF)) of the same molecule?
A: 8 µg/mL (≈ 17.1 µM)

Q: And the MIC ([1]; read-out: MIC Tobramycin, strain TN1811 (resistant to INH, RIF, SM, EMB))?
A: 4 µg/mL (≈ 8.56 µM)

Q: And the MIC ([1]; read-out: MIC Tobramycin, strain TN2015 (resistant to INH, RIF, SM, KAN))?
A: > 128 µg/mL

Q: What about the MIC ([1]; read-out: MIC Tobramycin, strain TN2557 (resistant to INH, RIF, SM)) of the same molecule?
A: 8 µg/mL (≈ 17.1 µM)

Q: And the MIC ([1]; read-out: MIC Tobramycin, strain TN3806 (resistant to INH, RIF, SM, EMB, KAN))?
A: > 128 µg/mL

Q: What about the MIC ([1]; read-out: activity against multidrug-resistant strains) of the same molecule?
A: 4 to 8 µg/mL (≈ 8.56 to 17.1 µM)

Q: And the MIC [2]?
A: > 128 µg/mL

Q: And the MIC ([2]; read-out: minimal inhibitory concentrations (MICs))?
A: ≤ 8 µg/mL
